Here are results for 31 molecules from patent US20230391739A1, “ARYL DERIVATIVES FOR TREATING TRPM3 MEDIATED DISORDERS” (Katholieke Universiteit Leuven, priority 2020, published 2023).

This experiment addresses T1, mouse TRPM3α2 (mTRPM3) ion channel (Mus musculus, UniProt J9SQF3).
T1 construct: expressed in transfected cells; host or cells: flip-in HEK293
The experiment is described as follows: TRPM3 ion channel driven Ca2+ uptake, Fluo-4 AM assay, PS-stimulated (mTRPM3). The format is cell-based. The settings on record: TRPM3 overexpressing flip-in HEK293 cells stimulated with Pregnenolone sulfate (PS) 50 μM, activity ranges A, B, C. The procedure: Monitoring the TRPM3 Ion Channel Driven Ca^2+ Uptake.
In order to monitor the inhibition of the mouse TRPM3α2 (mTRPM3) ion channel by the compounds of the invention, a cellular system making use of an mTRPM3alpha2 or hTRPM3 overexpressing cell line (flip-in HEK293) was used. The TRPM3 channel was stimulated/opened with Pregnenolone sulfate (PS) (50 μM) which results in Ca^2+ influx.
For mTRPM3, the intracellular Ca^2+ was measured with a Calcium responsive dye, Fluor-4 AM ester (Invitrogen). Cells were cultured until a confluence of 80-90%, washed with Versene (Invitrogen) and detached from the surface by a short incubation with 0.05% Trypsin (Invitrogen). The trypsination process was stopped by the addition of complete cell culture medium (DMEM, glutamax, 10% FCS, NEAA, Pen-Strep). Cells were collected and resuspended in Krebs buffer without Calcium at RT.
Prior the cell seeding (±2000 cells/well into a black, 384 well plate (Greiner)) the diluted compound was added in the assay plate, together with the PS dissolved in Krebs buffer containing Calcium. […] Directly after cell addition the plates were read on an Envision fluorescence reader (Perkin Elmer) by an Excitation of 485 nm and emission at 535 nm.
Channel inhibition was calculated compared to a non-PS stimulated control versus a condition stimulated with PS (50 μM) with vehicle. The ability of the compounds of the invention to inhibit this activity was determined as: Percentage inhibition=[1−((RFU determined for sample with test compound present−RFU determined for sample with positive control inhibitor) divided by (RFU determined in the presence of vehicle−RFU determined for sample with positive control inhibitor))]*100.
The activities of the Example compounds tested are depicted in the table below.

T1 sequence (J9SQF3 1-1709 isoform J9SQF3-12): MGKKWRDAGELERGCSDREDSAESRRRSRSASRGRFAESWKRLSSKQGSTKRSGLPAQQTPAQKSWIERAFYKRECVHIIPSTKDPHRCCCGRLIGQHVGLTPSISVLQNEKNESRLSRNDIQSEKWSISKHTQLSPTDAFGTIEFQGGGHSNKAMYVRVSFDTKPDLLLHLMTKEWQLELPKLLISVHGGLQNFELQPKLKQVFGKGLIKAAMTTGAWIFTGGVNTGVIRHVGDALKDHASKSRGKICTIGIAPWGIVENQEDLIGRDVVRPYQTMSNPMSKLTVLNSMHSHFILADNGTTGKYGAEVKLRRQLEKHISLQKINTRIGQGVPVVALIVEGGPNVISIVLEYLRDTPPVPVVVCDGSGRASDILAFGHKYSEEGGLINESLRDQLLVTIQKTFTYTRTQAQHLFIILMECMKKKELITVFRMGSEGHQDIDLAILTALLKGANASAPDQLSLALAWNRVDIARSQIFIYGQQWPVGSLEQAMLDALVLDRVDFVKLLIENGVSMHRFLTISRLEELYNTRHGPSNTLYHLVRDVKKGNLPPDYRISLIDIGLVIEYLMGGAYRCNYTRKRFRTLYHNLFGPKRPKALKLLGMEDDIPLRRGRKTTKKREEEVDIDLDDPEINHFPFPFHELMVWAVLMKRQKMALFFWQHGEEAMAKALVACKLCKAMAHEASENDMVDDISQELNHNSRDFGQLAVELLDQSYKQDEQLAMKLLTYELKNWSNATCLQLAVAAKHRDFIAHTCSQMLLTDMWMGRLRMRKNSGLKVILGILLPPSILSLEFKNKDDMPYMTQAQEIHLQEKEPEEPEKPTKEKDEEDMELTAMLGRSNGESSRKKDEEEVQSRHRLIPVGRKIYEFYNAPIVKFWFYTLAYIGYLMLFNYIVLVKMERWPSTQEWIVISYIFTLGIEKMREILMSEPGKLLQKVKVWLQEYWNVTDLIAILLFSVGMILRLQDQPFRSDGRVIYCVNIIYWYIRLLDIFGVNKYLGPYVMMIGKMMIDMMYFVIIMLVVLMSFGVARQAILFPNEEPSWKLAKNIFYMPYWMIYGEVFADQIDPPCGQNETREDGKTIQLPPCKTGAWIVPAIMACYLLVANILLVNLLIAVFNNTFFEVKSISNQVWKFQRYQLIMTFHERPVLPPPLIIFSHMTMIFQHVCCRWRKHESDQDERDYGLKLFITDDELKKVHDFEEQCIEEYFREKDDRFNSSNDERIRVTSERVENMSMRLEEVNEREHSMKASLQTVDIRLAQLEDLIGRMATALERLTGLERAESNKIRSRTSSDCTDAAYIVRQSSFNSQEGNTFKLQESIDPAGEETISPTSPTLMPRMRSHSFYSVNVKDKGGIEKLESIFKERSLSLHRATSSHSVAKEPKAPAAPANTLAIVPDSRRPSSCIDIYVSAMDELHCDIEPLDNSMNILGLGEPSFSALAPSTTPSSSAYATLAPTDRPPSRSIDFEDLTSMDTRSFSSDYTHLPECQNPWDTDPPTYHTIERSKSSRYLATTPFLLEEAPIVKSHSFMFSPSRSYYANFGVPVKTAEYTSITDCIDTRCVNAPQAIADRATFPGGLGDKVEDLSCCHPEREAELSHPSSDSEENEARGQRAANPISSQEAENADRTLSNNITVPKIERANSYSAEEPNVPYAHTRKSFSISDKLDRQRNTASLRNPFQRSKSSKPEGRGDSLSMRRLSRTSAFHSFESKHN

In the case of `Cc1oc2ccc(OCc3ccccc3)cc2c1C(=O)N1CC[C@@H](N(C)C)C1` [Cpd 118, (R)-(5-(benzyloxy)-2-methylbenzofuran-3-yl)(3-(dimethylamino)pyrrolidin-1-yl)methanone], the IC50 is > 20 µM.

In the case of `Cc1oc2ccc(OCc3ccc(Cl)cc3)cc2c1C(=O)O` [Cpd 016, 5-((4-chlorobenzyl)oxy)-2-methylbenzofuran-3-carboxylic acid], the IC50 lay within 1 to 20 µM. In the case of `Cc1oc2ccc(OCc3ccccc3F)cc2c1C(=O)NC(C)(CO)CO` [Cpd 312, N-(1,3-dihydroxy-2-methylpropan-2-yl)-5-((2-fluorobenzyl)oxy)-2-methylbenzofuran-3-carboxamide] it was < 1 µM.

In the case of `Cc1oc2ccc(OCc3ccccc3)cc2c1C(=O)Nc1cccnn1` [Cpd 062, 5-(benzyloxy)-2-methyl-N-(pyridazin-3-yl)benzofuran-3-carboxamide], the IC50 was > 20 µM. The same measure for `Cc1oc2ccc(OCc3ccccc3F)cc2c1C(=O)O` [Cpd 008, 5-((2-fluorobenzyl)oxy)-2-methylbenzofuran-3-carboxylic acid]: < 1 µM; for `Cc1oc2ccc(OCc3ccccc3)cc2c1C(=O)NC1CCCN(C(=O)OC(C)(C)C)C1` (stereo not shown) [Cpd 247, tert-butyl 3-(5-(benzyloxy)-2-methylbenzofuran-3-carboxamido)piperidine-1-carboxylate]: > 20 µM. `COc1ccc(COc2ccc3oc(C)c(C(=O)O)c3c2)cc1` [Cpd 014, 5-((4-methoxybenzyl)oxy)-2-methylbenzofuran-3-carboxylic acid] yielded an IC50 of 1 to 20 µM. With `Cc1oc2ccc(OCc3ccccc3C(F)(F)F)cc2c1C(=O)NC1CNCC1(F)F` (stereo not shown) [Cpd 240, N-(4,4-difluoropyrrolidin-3-yl)-2-methyl-5-((2-(trifluoromethyl)benzyl)oxy)benzofuran-3-carboxamide], the IC50 was < 1 µM.

As for `Cc1oc2ccc(OCc3ccccc3F)cc2c1C(=O)NC1(CO)CCOCC1` [Cpd 197, 5-((2-fluorobenzyl)oxy)-N-(4-(hydroxymethyl)tetrahydro-2H-pyran-4-yl)-2-methylbenzofuran-3-carboxamide], the IC50 is < 1 µM. The same measure for `COc1ccccc1COc1ccc2oc(C)c(C(=O)NC3CCNC3=O)c2c1` (stereo not shown) [Cpd 164, 5-((2-methoxybenzyl)oxy)-2-methyl-N-(2-oxopyrrolidin-3-yl)benzofuran-3-carboxamide]: < 1 µM. With `Cc1oc2ccc(OCc3ccccc3)cc2c1C(=O)N[C@@H]1CCN(C)C1` [Cpd 080, (R)-5-(benzyloxy)-2-methyl-N-(1-methylpyrrolidin-3-yl)benzofuran-3-carboxamide], the IC50 is < 1 µM. For `Cc1oc2ccc(OCc3ccccc3)cc2c1C(=O)NC1(C(=O)O)CCOCC1` [Cpd 193, 4-(5-(benzyloxy)-2-methylbenzofuran-3-carboxamido)tetrahydro-2H-pyran-4-carboxylic acid], the IC50 was 1 to 20 µM.

As to `Cc1oc2ccc(OC(CO)c3ccccc3F)cc2c1C(=O)NC1(C(N)=O)CCC1` (single isomer, unassigned) [Cpd 345-En 1, N-(1-carbamoylcyclobutyl)-5-(1-(2-fluorophenyl)-2-hydroxyethoxy)-2-methylbenzofuran-3-carboxamide], the IC50 is < 1 µM. In the case of `COC(=O)[C@@H]1C[C@H](NC(=O)c2c(C)oc3ccc(OCc4ccccc4)cc23)CN1` [Cpd 191, methyl (2S,4S)-4-(5-(benzyloxy)-2-methylbenzofuran-3-carboxamido)pyrrolidine-2-carboxylate] it was < 1 µM. The same measure for `CCc1oc2ccc(OCc3cccc(F)c3)cc2c1C(=O)NC1CCN(C)CC1` [Cpd 194, 2-ethyl-5-((3-fluorobenzyl)oxy)-N-(1-methylpiperidin-4-yl)benzofuran-3-carboxamide]: 1 to 20 µM; for `Cc1oc2ccc(OC(CN(C)C)c3ccccc3)cc2c1C(=O)N[C@@H](CO)C(N)=O` (single isomer, unassigned) [Cpd 347-En 2]: < 1 µM; for `Cc1oc2ccc(OCc3ccccc3)cc2c1C(=O)NC1CCNCC1` [Cpd 074, 5-(benzyloxy)-2-methyl-N-(piperidin-4-yl)benzofuran-3-carboxamide]: < 1 µM. The same measure for `Cc1oc2ccc(OCc3ccccc3)cc2c1C(=O)NCc1nnc2ncccn12` [Cpd 196, N-([1,2,4]triazolo[4,3-a]pyrimidin-3-ylmethyl)-5-(benzyloxy)-2-methylbenzofuran-3-carboxamide]: 1 to 20 µM; for `COc1cccc(COc2ccc3oc(C)c(C(=O)N[C@H]4CCNC4)c3c2)c1` [Cpd 127, (S)-5-((3-methoxybenzyl)oxy)-2-methyl-N-(pyrrolidin-3-yl)benzofuran-3-carboxamide]: < 1 µM; for `CCN1CCC[C@H]1CNC(=O)c1c(C)oc2ccc(OCc3ccccc3)cc12` [Cpd 152, (S)-5-(benzyloxy)-N-((l-ethylpyrrolidin-2-yl)methyl)-2-methylbenzofuran-3-carboxamide]: 1 to 20 µM. Consider `Cc1oc2ccc(OCc3c(F)cccc3F)cc2c1C(=O)NC1CCNC1=O` (stereo not shown) [Cpd 172, 5-((2,6-difluorobenzyl)oxy)-2-methyl-N-(2-oxopyrrolidin-3-yl)benzofuran-3-carboxamide], for which the IC50 was < 1 µM. In the case of `Cc1oc2ccc(COc3ccccc3F)cc2c1C(=O)NC(C)C(N)=O` (single isomer, unassigned) [Cpd 320-En 2] it was < 1 µM; in that of `Cc1oc2ccc(OCc3ccccc3)cc2c1C(=O)N1CCCCC1` [Cpd 047, (5-(benzyloxy)-2-methylbenzofuran-3-yl)(piperidin-1-yl)methanone], > 20 µM. The same measure for `Cc1oc2ccc(OCc3ccccc3F)cc2c1C(=O)N[C@@H]1COC[C@@H]1O` (single isomer, unassigned) [Cpd 329-En 2]: < 1 µM. In the case of `Cc1oc2ccc(OCc3ccccc3)cc2c1C(=O)N[C@@H]1CCNC1` [Cpd 048, (R)-5-(benzyloxy)-2-methyl-N-(pyrrolidin-3-yl)benzofuran-3-carboxamide] it was < 1 µM; in that of `Cc1oc2ccc(OCc3ccccc3F)cc2c1C(=O)N[C@@H]1COC[C@@H]1O` (single isomer, unassigned) [Cpd 329-En 1], < 1 µM; in that of `Cc1oc2ccc(OCc3ccccc3)cc2c1C(=O)NC1CC2(CCNCC2)C1` [Cpd 180, 5-(benzyloxy)-2-methyl-N-(7-azaspiro[3.5]nonan-2-yl)benzofuran-3-carboxamide], < 1 µM. On to `Cc1oc2ccc(OCc3cccc(OC(F)(F)F)c3)cc2c1C(=O)N[C@H]1CCNC1` [Cpd 223, (S)-2-methyl-N-(pyrrolidin-3-yl)-5-((3-(trifluoromethoxy)benzyl)oxy)benzofuran-3-carboxamide], for which the IC50 was 1 to 20 µM. Consider `Cc1oc2ccc(OCc3ccc(F)cc3F)cc2c1C(=O)N[C@@H](CO)C(N)=O` [Cpd 340, (S)—N-(1-amino-3-hydroxy-1-oxopropan-2-yl)-5-((2,4-difluorobenzyl)oxy)-2-methylbenzofuran-3-carboxamide], for which the IC50 is < 1 µM. Turning to `Cc1oc2ccc(OCc3ccccc3F)cc2c1C(=O)NC(CO)C(N)=O` (single isomer, unassigned) [Cpd 314-En 2], the IC50 was < 1 µM. Take `Cc1oc2ccc(OCc3ccccc3)cc2c1C(=O)NC1CNCCC1F` (single isomer, unassigned) [Cpd 130-Dia 2]: the concentration for half-maximal inhibition (IC50) was < 1 µM.
